For data set [1] the following is noted: human liver microsomes. On the technique in general: Microsomes from liver hold many membrane-bound enzymes, among them those of drug oxidation.
The test system of data set [2] is T. cruzi (Tulahuen TcVI). In words: Initial PK/PD efficacy: 10-day once daily oral dosing of T. cruzi infected mice. As to conditions: 20 mg/kg oral once daily for up to 10 days. The class given is in vivo, Swiss mice.
Data set [3] deals with T. cruzi. As to conditions: twice daily treatment for 30 days, acute and chronic models; cited from earlier work.
The subject of data set [4] is T. cruzi (Tulahuen TcVI). As to conditions: once daily oral 20 mg/kg for 20 days, cited from earlier work.
The test system of data set [5] is T. cruzi (Tulahuen strain (Tc VI) transfected with β-galactosidase), amastigote form. Put plainly: microbe, parasite or virus in culture. The settings on record: Trypanosoma cruzi.
A short description of the next data set: physchem. The settings on record: pH 2.
In data set [6] the test system is T. cruzi (Tulahuen TcVI).
The next data set is described as follows: in vitro. As to conditions: rat, L6 IC50 (cytotoxicity), L6 cells.
In data set [7] the test system is T. cruzi. The settings on record: cited from earlier work.
Setting [8] is: 20 mg/kg oral once daily 20 days.
Where [9] appears, read: 20 mg/kg oral once daily 20 days, day 8 = first compound dose.
Setting [10] is: 20 mg/kg oral once daily 20 days, end after three cycles of immunosuppression.
The mark [11] stands for this setting: 20 mg/kg oral once daily 20 days, first day of nontreatment period.
Setting [12] is: 20 mg/kg oral once daily 20 days, last day of nontreatment period.
Setting [13] is: 20 mg/kg, PCR of blood, spleen, heart, skeletal muscle, colon.
Where [14] appears, read: 5 mg/kg oral once daily 20 days.
The mark [15] stands for this setting: 10 mg/kg oral once daily 20 days.
The mark [16] stands for this setting: 100 mg/kg oral once daily 20 days.

Converted amounts (≈) assume the structure as drawn. “And” between values parts separate entries of the source, which are not always exact repeats. Identical values can stand only once. Like-named read-outs stand apart in the source and are kept apart here.

Turning to `N#Cc1ccccc1N1CCC(N(c2ccc(C(F)(F)F)cc2)c2cccnc2)CC1` [compound 25], the “predicted human EH” value in [1] (Table 1) is reported as 0.88.
Regarding `O=C([C@H](c1ccc(Cl)cc1)c1cccnc1)N1CCN(c2ccc(C(F)(F)F)cc2)CC1` [(R)-7, 2-(4-Chlorophenyl)-1-{4-[4-(trifluoromethyl)phenyl]piperazin-1-yl}-2-(pyridin-3-yl)ethanone], the “predicted human EH” value in [1] (Table 2) is 0.61.
With `Cc1ncsc1C(=O)N1CCC(NC(c2ccc(C(F)(F)F)cc2)c2cccnc2)CC1` (centres unmarked) [compound 51], the “parasites cleared from blood during 10-day dosing?” value (shortened to “parasites cleared”) with T. cruzi (Tulahuen TcVI) [2] is “no”.
On to `O=C(N[C@@H](Cn1ccnc1)c1ccc(Cl)cc1Cl)c1ccc(-c2nnc(-c3ccccc3)o2)cc1` [VNI], for which, in the data set on T. cruzi [3], the parasitological cure result is “parasitological cure”.
For `Fc1cc(Cl)ccc1C(NC1CCN(c2ccc(C(F)(F)F)cc2)CC1)c1cccnc1` (centres unmarked) [compound 5], the “parasites cleared” value in the data set on T. cruzi (Tulahuen TcVI) [2] is listed as “yes”.
With `Cc1cc(C(=O)NC2CCN(C(c3ccc(C#N)cc3)c3cccnc3)CC2)n(C)n1` (centres unmarked) [compound 50], the “parasites cleared” value in the data set on T. cruzi (Tulahuen TcVI) [2] is listed as “no”.
On to `N#Cc1ccc(C(C(=O)N2CCN(c3ccc(C(F)(F)F)cn3)CC2)c2cccnc2)cc1` (centres unmarked) [compound 44], for which the “predicted human EH” value in data set [1] (Table 2) is recorded as 0.56.
Consider `N#Cc1ccc(C(O)(c2ccc(C(F)(F)F)cc2)c2cccnc2)cc1` (centres unmarked) [compound 2, 4-(hydroxy(pyridin-3-yl)[4-(trifluoromethyl)phenyl]methyl)benzonitrile], for which, in the data set with T. cruzi (Tulahuen TcVI) [4] (three cycles of immunosuppression), the parasitological cure entry was “had not achieved a parasitological cure”. For the same compound, the IC50 (usually the concentration that inhibits the measured activity by half) in data set [5] stood at 12 nM. Moreover, in the data set with T. cruzi (Tulahuen TcVI) [2], the “parasites cleared” value is “yes”.
Turning to `O=C(C(c1ccc(Cl)cc1)c1cccnc1)N1CCN(c2ccc(C(F)(F)F)cn2)CC1` (centres unmarked) [compound 43], the concentration in solution in the data set “physchem” (solubility) came to 25 µg/mL (≈ 54.2 µM). In addition, in data set [1] (Table 2), the “predicted human EH” value is given as 0.70.
For the compound `FC(F)(F)c1ccc(N(c2cccnc2)C2CCN(c3ccc(C(F)(F)F)cn3)CC2)cc1` [compound 6, N-[4-(Trifluoromethyl)phenyl]-N-(1-[5-(trifluoromethyl)pyridin-2-yl]piperidin-4-yl)pyridin-3-amine], the “parasites cleared” value in the data set on T. cruzi (Tulahuen TcVI) [2] is recorded as “yes”. Also, in the data set on T. cruzi (Tulahuen TcVI) [6] (setting [8]), the “mice microscopically parasite free following three cycles of immunosuppression” value is 3 out of 4 and the “mice parasite free at the end of dosing” value was 4 out of 5. Besides, the “mouse survival after infection, day 8” value in the data set on T. cruzi (Tulahuen TcVI) [6] (setting [9]) is recorded as 5 of 5. In the data set with T. cruzi (Tulahuen TcVI) [6] (setting [10]), the “mouse survival after infection, day 58” value is 3 of 5. The “mouse survival after infection, day 28” value with T. cruzi (Tulahuen TcVI) [6] (setting [11]) is 4 of 5. For the same compound, in the data set with T. cruzi (Tulahuen TcVI) [6] (setting [12]), the “mouse survival after infection, day 37” value is recorded as 4 of 5. The “–ve PCR” value in the data set on T. cruzi (Tulahuen TcVI) [6] (setting [13]) is given as 3 of 3. In addition, in the data set with T. cruzi (Tulahuen TcVI) [6] (lower doses, 5 and 10 mg/kg, data not shown), the parasitological cure entry was “parasitological cure was not observed”. Also, the “predicted human EH” value in [1] (Table 1) is listed as 0.68.
As for `CS(=O)(=O)c1ccc(N2CCC(N(c3ccc(C#N)cc3)c3cccnc3)CC2)cc1` [compound 33], in data set [1] (Table 1), the “predicted human EH” value is 0.47.
On to `O=C([C@@H](c1ccc(Cl)cc1)c1cccnc1)N1CCN(c2ccc(C(F)(F)F)cc2)CC1` [(S)-7, 2-(4-Chlorophenyl)-1-{4-[4-(trifluoromethyl)phenyl]piperazin-1-yl}-2-(pyridin-3-yl)ethanone], for which the “cure by PCR analyses of organs and blood” value in the data set on T. cruzi (Tulahuen TcVI) [6] (5 mg/kg daily oral) is “cure had not been achieved”. Besides, in the data set on T. cruzi (Tulahuen TcVI) [6] (setting [14]), the “mouse survival after infection, day 8” value is 4 of 4; the “mouse survival after infection, day 28” value is recorded as 4 of 4; the “mouse survival after infection, day 37” value is 4 of 4; the “mouse survival after infection, day 58” value was 3 out of 4 and 3 of 4. Further, the “–ve PCR” value in the data set with T. cruzi (Tulahuen TcVI) [6] (5 mg/kg, PCR of blood and tissues) is on record as 0 of 3. In addition, in the data set with T. cruzi (Tulahuen TcVI) [6] (setting [15]), the “mouse survival after infection, day 8” value is 4 of 4; the “mouse survival after infection, day 28” value is given as 4 of 4; the “mouse survival after infection, day 37” value is on record as 4 of 4; the “mouse survival after infection, day 58” value is on record as 3 of 4. For the same compound, the “–ve PCR” value in the data set with T. cruzi (Tulahuen TcVI) [6] (10 mg/kg, PCR of blood and tissues) was 2 out of the 3 and 2 of 3. For the same compound, the “predicted human EH” value in [1] (Table 2) is on record as 0.53.
As to `FC(F)(F)c1ccc(N(c2cccnc2)C2CCN(c3ccc(Cl)cc3)CC2)cc1` [compound 27], the “predicted human EH” value in data set [1] (Table 1) is 0.65.
In the case of `N#Cc1ccc(C(C(=O)N2CCN(c3ccc(C(F)(F)F)cc3)CC2)c2cccnc2)cc1` (centres unmarked) [compound 40], the “predicted human EH” value in [1] (Table 2) is given as 0.70.
Turning to `N#Cc1ccc(C(C(=O)N2CCN(c3ccc(C(F)(F)F)nc3)CC2)c2cccnc2)cc1` (centres unmarked) [compound 42], in data set [1] (Table 2), the “predicted human EH” value is 0.56.
Take `Cc1ccccc1CN1CCC(N(c2ccc(C(F)(F)F)cc2)c2cccnc2)CC1` [compound 22]: the “predicted human EH” value in [1] (Table 1) is given as 0.87.
Take `O=C(C(c1ccc(Cl)cc1)c1cccnc1)N1CCN(c2ccc(C(F)(F)F)cc2)CC1` (racemic) [(rac)-7, 2-(4-Chlorophenyl)-1-{4-[4-(trifluoromethyl)phenyl]piperazin-1-yl}-2-(pyridin-3-yl)ethanone]: the “parasites cleared” value in the data set on T. cruzi (Tulahuen TcVI) [2] is listed as “yes”. Moreover, the “cure by PCR analyses of organs and blood” value in the data set with T. cruzi (Tulahuen TcVI) [6] (20 mg/kg daily oral) is given as “no cures were obtained”. Besides, in the data set with T. cruzi (Tulahuen TcVI) [6] (setting [9]), the “mouse survival after infection, day 8” value was 5 of 5. For the same compound, the “mouse survival after infection, day 58” value in the data set on T. cruzi (Tulahuen TcVI) [6] (setting [10]) is 3 of 5. For the same compound, the “mouse survival after infection, day 28” value in the data set with T. cruzi (Tulahuen TcVI) [6] (setting [11]) is on record as 5 of 5. For the same compound, the “mouse survival after infection, day 37” value in the data set on T. cruzi (Tulahuen TcVI) [6] (setting [12]) is 5 out of 5 and 5 of 5. The “–ve PCR” value in the data set with T. cruzi (Tulahuen TcVI) [6] (setting [13]) is 0 of 3. In addition, the “predicted human EH” value in [1] (Table 2) is listed as 0.50.
Take `CC[C@@H]([C@H](C)O)n1ncn(-c2ccc(N3CCN(c4ccc(OC[C@@H]5CO[C@@](Cn6cncn6)(c6ccc(F)cc6F)C5)cc4)CC3)cc2)c1=O` [posaconazole, reference compound]: in the data set on T. cruzi (Tulahuen TcVI) [4] (subchronic mouse model), the mice cured is listed as approximately 60%. The IC50 in data set [5] (read-out: Tc IC50) was 0.7 nM; in the data set “in vitro” it was more than 100 µM. In the data set on T. cruzi (Tulahuen TcVI) [2], the “parasites cleared” value is “yes”.
For the compound `N#Cc1ccc(C(c2cccnc2)N2CCC(NC(=O)c3c(F)cccc3F)CC2)cc1` (centres unmarked) [compound 4], the “parasites cleared” value in the data set with T. cruzi (Tulahuen TcVI) [2] is “no”.
With `N#Cc1ccc(N(c2cccnc2)C2CCN(c3ccc(C(F)(F)F)cc3)CC2)cc1` [compound 31], the “predicted human EH” value in data set [1] (Table 1) is on record as 0.69.
For the compound `CS(=O)(=O)c1ccc(N2CCN(C(=O)C(c3ccc(Cl)cc3)c3cccnc3)CC2)cc1` (centres unmarked) [compound 45], the “predicted human EH” value in data set [1] (Table 2) is recorded as 0.82.
Same read-out and setting: for `CS(=O)(=O)c1ccc(N2CCN(C(=O)C(c3ccc(C#N)cc3)c3cccnc3)CC2)cc1` (centres unmarked) [compound 46] the value was 0.46.
`N#Cc1cccc(N2CCC(NC(c3cccnc3)c3ccc(Cl)cc3F)CC2)c1` (centres unmarked) [compound 48]: the “parasites cleared” value with T. cruzi (Tulahuen TcVI) [2] is reported as “no”.
For `N#Cc1ccc(C(c2cccnc2)N2CCC(NC(=O)c3ccccc3)CC2)cc1` (centres unmarked) [compound 47], in the data set on T. cruzi (Tulahuen TcVI) [2], the “parasites cleared” value is on record as “no”.
Turning to `O=C(C(c1ccc(Cl)cc1)c1cccnc1)N1CCN(c2ccc(C(F)(F)F)nc2)CC1` (centres unmarked) [compound 41], in data set [1] (Table 2), the “predicted human EH” value is on record as 0.77.
Turning to `FC(F)(F)c1ccc(N(c2cncnc2)C2CCN(c3ccc(C(F)(F)F)cn3)CC2)cc1` [compound 34], the “predicted human EH” value in [1] (Table 1) is on record as 0.63.
As to `O=C(Cn1ccnc1[N+](=O)[O-])NCc1ccccc1` [benznidazole, reference compound], in data set [5] (read-out: Tc IC50), the half-maximal inhibitory concentration (IC50) came to 1500 nM. Besides, the “parasites in blood during the immunosuppression phase” value with T. cruzi (Tulahuen TcVI) [6] (100 mg/kg oral) is on record as “re-emergence of parasites in blood”. Besides, in the data set on T. cruzi (Tulahuen TcVI) [6] (setting [16]), the “mouse survival after infection, day 8” value was 5 of 5; the “mouse survival after infection, day 28” value is reported as 4 of 5; the “mouse survival after infection, day 37” value is 4 of 5; the “mouse survival after infection, day 58” value was 0 of 5. This compound came in with a concentration for half-maximal inhibition (IC50) in the data set “in vitro” of more than 100 µM. The “adult patients experiencing serious adverse reactions” value in the data set with T. cruzi [7] is “up to 30%”. The “cure rates, acute stage of the infection” value in the data set on T. cruzi [7] (patients) is given as “up to 60%”.
Take `CC(C)(C)CC(=O)N1CCC(N(c2ccc(Cl)cc2)c2cccnc2)CC1` [compound 16]: the “predicted human EH” value in data set [1] (Table 1) is 0.91.
`N#Cc1ccc(C(O)(c2ccc(C(F)(F)F)cc2)c2cccnc2)c(F)c1` (centres unmarked) [compound 52]: the IC50 in [5] is 2 nM. The “parasites cleared” value with T. cruzi (Tulahuen TcVI) [2] is on record as “yes”.

The values are drawn from paper PMC3884847 (Journal of Medicinal Chemistry, 2013).
